Laboratory results published in paper PMC7044277 (Nature Communications, 2020).
Several values for one entry are separate records, joined by “and”; a condition that tells them apart may be missing. Equal values may be shown once.

Legend:
Format in all cases: cell-based
320 non-olfactory GPCRs [1] = target: T1, 320 non-olfactory GPCRs (Homo sapiens, UniProt P51685)
T1 construct: expressed in transfected cells; host or cells: HTLA cells

320 non-olfactory GPCRs [2] = target: T2, 320 non-olfactory GPCRs (Homo sapiens, UniProt P30559); conditions: receptor OXTR; replicate values, Fig_4g
T2 construct: expressed in transfected cells; host or cells: HTLA cells

320 non-olfactory GPCRs [3] = target: T3, 320 non-olfactory GPCRs (Homo sapiens, UniProt P32248)
T3 construct: expressed in transfected cells; host or cells: HTLA cells

320 non-olfactory GPCRs [4] = target: T4, 320 non-olfactory GPCRs (Homo sapiens, UniProt Q99788)
T4 construct: expressed in transfected cells; host or cells: HTLA cells
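Wherever Fold of Basal is given: compound tested at 1 µM final concentration.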
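Wherever GPCRome agonism screen response is given: fold over basal response of each receptor without drug.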

T4 sequence (Q99788 whole entry): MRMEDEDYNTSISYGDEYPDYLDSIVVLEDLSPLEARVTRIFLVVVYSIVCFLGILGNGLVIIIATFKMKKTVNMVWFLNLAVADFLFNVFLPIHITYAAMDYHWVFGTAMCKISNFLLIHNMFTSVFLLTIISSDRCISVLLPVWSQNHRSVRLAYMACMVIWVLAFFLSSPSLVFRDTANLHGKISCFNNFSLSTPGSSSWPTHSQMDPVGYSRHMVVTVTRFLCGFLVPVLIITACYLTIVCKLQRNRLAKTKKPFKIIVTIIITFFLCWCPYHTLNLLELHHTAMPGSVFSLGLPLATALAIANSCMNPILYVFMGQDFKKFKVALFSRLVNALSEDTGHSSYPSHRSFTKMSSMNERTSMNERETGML
T1 sequence (P51685 whole entry): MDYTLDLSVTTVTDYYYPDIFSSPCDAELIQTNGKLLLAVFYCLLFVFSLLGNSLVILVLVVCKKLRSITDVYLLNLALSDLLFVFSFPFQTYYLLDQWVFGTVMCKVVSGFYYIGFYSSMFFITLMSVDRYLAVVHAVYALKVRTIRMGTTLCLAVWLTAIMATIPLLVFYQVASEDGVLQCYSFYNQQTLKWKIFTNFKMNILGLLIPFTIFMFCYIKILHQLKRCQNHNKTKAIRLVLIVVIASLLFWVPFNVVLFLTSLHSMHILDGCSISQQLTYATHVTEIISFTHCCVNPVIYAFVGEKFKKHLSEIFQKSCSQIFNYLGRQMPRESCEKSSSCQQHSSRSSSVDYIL
T2 sequence (P30559 whole entry): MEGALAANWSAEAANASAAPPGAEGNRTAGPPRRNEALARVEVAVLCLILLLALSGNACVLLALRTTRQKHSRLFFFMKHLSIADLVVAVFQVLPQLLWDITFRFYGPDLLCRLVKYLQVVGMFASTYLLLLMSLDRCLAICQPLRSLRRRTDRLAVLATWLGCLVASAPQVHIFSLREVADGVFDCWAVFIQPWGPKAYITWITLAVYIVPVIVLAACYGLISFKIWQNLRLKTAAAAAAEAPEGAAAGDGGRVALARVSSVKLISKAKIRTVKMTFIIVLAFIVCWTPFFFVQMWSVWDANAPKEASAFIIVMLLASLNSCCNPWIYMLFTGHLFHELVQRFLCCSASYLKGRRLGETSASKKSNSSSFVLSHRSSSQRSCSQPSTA
T3 sequence (P32248 25-378): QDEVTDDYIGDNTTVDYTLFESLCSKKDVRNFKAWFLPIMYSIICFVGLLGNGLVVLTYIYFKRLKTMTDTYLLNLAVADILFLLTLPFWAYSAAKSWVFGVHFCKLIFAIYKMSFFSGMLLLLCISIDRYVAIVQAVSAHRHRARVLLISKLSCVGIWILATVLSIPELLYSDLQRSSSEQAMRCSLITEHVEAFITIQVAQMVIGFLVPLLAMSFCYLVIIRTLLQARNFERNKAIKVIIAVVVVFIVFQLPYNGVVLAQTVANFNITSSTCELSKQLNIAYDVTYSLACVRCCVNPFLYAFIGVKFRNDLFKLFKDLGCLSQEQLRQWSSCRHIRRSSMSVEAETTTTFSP

SMILES: CCOc1cccc2cc(C(C)NCC3(O)CCCCC3)oc12 (stereo not shown) [O4LE6]
- Fold of Basal (320 non-olfactory GPCRs [1]): 1.057 (2×) and 0.6946 and 0.6945
- GPCRome agonism screen response (320 non-olfactory GPCRs [2]): 1.578 and 1.894 and 1.457 and 1.467
- Fold of Basal (320 non-olfactory GPCRs [3]): 1.25 and 0.8767 and 0.9045 and 1.727
- Fold of Basal (320 non-olfactory GPCRs [4]): 0.9321 and 1.173 and 0.7369 and 1.152
